# Patent publication US20250241908A1 (SHANGHAI YAO YUAN BIOTECHNOLOGY CO., LTD., priority 2022, published 2025)
# Like-named read-outs stand apart in the source and are kept apart here.
# Tests used:
# [1] = tested on: ALPK1-TIFA-IL1β pathway in THP-1-derived macrophage cells; test: PMA-differentiated THP-1 cell based assay; settings: for IC50: Homo sapiens, PMA-differentiated THP-1 cells stimulated with ALPK1 agonist
# Protocol: We evaluated the ability of ALPK1 inhibitors to suppress IL1β, IL8 and TNF-α levels following ALPK1 activation in THP-1-derived macrophage cells. […] Inhibitory activity is measured as suppression of IL1β.
# THP-1 cells were cultured in RPMI 1640 containing 10% heat inactivated FBS, penicillin (100 units/ml) and streptomycin (100 μg/ml), and maintained in a humidified incubator with 95% atmospheric air and 5% CO2. Prior to the experiment, THP-1 cells were seeded into 24-well flat-bottom plate at a cell density of 40,0000 cells/well. Phorbol myristate acetate (PMA; 50 ng/ml) was used to treat THP-1 cells for 48 h, and then THP-1-derived macrophages were obtained. […] Total RNA was extracted using the TRIzol method and reverse-transcribed. The mRNA expression levels IL1β, IL8 and TNF-α were detected by SYBR green gene expression assays. Expression levels of mRNA were normalized to GAPDH. Relative expression was calculated by comparing to vehicle control and the values were plotted as fold induction. All activity results were expressed as the mean of triplicate determinations. IC50 was determined from dose response curve using Prism Software, version 6.00 from GraphPad Software.
# [2] = tested on: ALPK1-dependent gene expression in PBMC; test: Inhibition of ALPK1 in PBMC cells; format: in vivo, Sprague-Dawley (SD) rats; settings: SD rats, 10 mpk oral, ALPK1 agonist ip 2 h later, blood 3 h after agonist; compared with vehicle group
# Protocol: We examined whether ALPK1 inhibitors can suppress ALPK1-dependent activation of a set of such genes in rats. […] PBMCs were collected and gene expression analyzed, as described in more detail below.
# After 3 hours administration of the ALPK1 agonist, the blood was collected from heart, and PBMC were extracted from each group.
# ALPK1 = ALPK1 (Homo sapiens (Human), UniProt Q96QP1); test: ALPK1 in vitro kinase assay (HTRF, TIFA phosphorylation); format: biochemical; settings: HTRF of HA-tagged TIFA; ALPK1 2 nM; ADP-Heptose as activator
# Protocol: ALPK1 kinase activity was measured in an in vitro assay using ADP-Heptose as the ALPK1 ligand and activator of its kinase activity and TIFA protein as the ALPK1 phosphorylation substrate. Since phosphorylated TIFA proteins oligomerize, Homogeneous Time-Resolved Fluorescence (HTRF) was used to measure protein: protein interaction between HA-tagged TIFA proteins as an indicator of TIFA phosphorylation.
# In brief, dose-response studies were performed in 384-well assay plates. Each well contained 0.1 mg TIFA, ALPK1 (2 nM final concentration in reaction mixture) and kinase buffer (100 mM of HEPES pH 7.4, 4 mM DTT, 40 mM MgCl2, 20 mM of β-Glycerol phosphate disodium salt, 0.4 mM of Na3 VO4, 0.16 mg/mL). Titrations of the test compounds were prepared in dimethylsulphoxide (DMSO). The reaction was initiated by addition of ATP and ADP-Heptose.
# For HTRF, samples were incubated with a Tb cryptate-labeled anti-HA antibody for capturing HA-tagged proteins according to the manufacturer's instructions (PerkinElmer™, CisBio™) and the fluorescence signal was quantified (Tecan Infinite F NANO+). HTRF signals were calculated as the HTRF ratio (ratio of fluorescence measured at 665 nm and 620 nm)×104 (thereby using the signal at 620 nm as an internal standard).
# IC50 values were determined using 3- or 4-parameter logistic equation using GraphPad Prism version 6.00.
# [3] = tested on: ALPK1-TIFA pathway target gene mRNA in HASMC; test: Primary Human Aorta Smooth Muscle Cell-based assay; settings: for IC50: Homo sapiens, HASMC stimulated with ALPK1 agonist
# Protocol: Primary Human Aorta smooth muscle Cells (HASMC) grow in Smooth muscle Cell Basal Media supplemented with Smooth Muscle Cell Growth Kit components (PriMed-iCell-002, iCell), provide an ideal cell system to propagate HASMC.
# Briefly, primary HASMC were seeded at a density of 25000 cells per well to a collagen coated 24-well culture plate. […] Total RNA was extracted using the RNeasy mini kit method and reverse-transcribed. The mRNA expression levels of target genes were detected by SYBR green gene expression assays. Expression levels of mRNA were normalized to HPRT. Relative expression was calculated by comparing to vehicle control and the values were plotted as fold induction. All activity results were expressed as the mean of triplicate determinations. IC50 was determined from dose response curve using Prism Software, version 6.00 from GraphPad Software.
# [4] = tested on: innate immunity gene expression following ALPK1 activation; test: Inhibition of ALPK1 in coronary artery, aorta, and heart muscle; format: in vivo, Sprague-Dawley (SD) rats; settings: SD rats, 40 mpk oral, ALPK1 agonist ip 2 h later, tissue 3 h after agonist; compared with vehicle group
# [5] = tested on: carotid artery of Guinea Pig after PCL surgery; test: Guinea pig, high fat diet, Partial Carotid Ligation model; format: in vivo; settings: 6 weeks high fat diet
# [6] = tested on: OSS-induced inflammatory signaling in ECs (HUVECs); test: Oscillatory shear stress (OSS) in HUVECs; format: cell-based, human; settings: oscillatory flow 0.5±4 dyn/cm2 for 6 hours, 300 nM
# Protocol: For flow experiments, confluent monolayers of HUVECs were seeded on glass slides, Static condition (ST) without any treatment served as control and a parallel plate flow system was used to impose oscillatory flow (0.5±4 dyn/cm2) for 6 hours.
# [7] = tested on: PCL induced atherosclerosis in ApoE knockout mice; test: ApoE mice, high fat diet, Partial Carotid Ligation atherosclerosis model; format: in vivo, mouse; settings: high fat diet, 1, 3, 9 mg/kg oral once daily for 2 weeks from PCL surgery
# Excerpt: To determine the efficacy of ALPK1 inhibitor in atherosclerosis, we treat the ApoE mice with High Fat Diet (Research Diet, D12109C), and perform Partial Carotid Ligation (PCL) surgery on left Carotid artery as described previously (Zhang, Chenghu et al. “Coupling of Integrin a5 to Annexin A2 by Flow Drives Endothelial Activation.” Circulation research vol. 127, 8 (2020): 1074-1090) to accelerate the development of atherosclerosis. […] Two weeks later, the carotid artery of ligated side was collected, the contralateral carotid from vehicle group were served as control. The carotid was fixed and sectioned. The wall thicknesses were quantified by software.
# Sequence of ALPK1 (Q96QP1 whole entry): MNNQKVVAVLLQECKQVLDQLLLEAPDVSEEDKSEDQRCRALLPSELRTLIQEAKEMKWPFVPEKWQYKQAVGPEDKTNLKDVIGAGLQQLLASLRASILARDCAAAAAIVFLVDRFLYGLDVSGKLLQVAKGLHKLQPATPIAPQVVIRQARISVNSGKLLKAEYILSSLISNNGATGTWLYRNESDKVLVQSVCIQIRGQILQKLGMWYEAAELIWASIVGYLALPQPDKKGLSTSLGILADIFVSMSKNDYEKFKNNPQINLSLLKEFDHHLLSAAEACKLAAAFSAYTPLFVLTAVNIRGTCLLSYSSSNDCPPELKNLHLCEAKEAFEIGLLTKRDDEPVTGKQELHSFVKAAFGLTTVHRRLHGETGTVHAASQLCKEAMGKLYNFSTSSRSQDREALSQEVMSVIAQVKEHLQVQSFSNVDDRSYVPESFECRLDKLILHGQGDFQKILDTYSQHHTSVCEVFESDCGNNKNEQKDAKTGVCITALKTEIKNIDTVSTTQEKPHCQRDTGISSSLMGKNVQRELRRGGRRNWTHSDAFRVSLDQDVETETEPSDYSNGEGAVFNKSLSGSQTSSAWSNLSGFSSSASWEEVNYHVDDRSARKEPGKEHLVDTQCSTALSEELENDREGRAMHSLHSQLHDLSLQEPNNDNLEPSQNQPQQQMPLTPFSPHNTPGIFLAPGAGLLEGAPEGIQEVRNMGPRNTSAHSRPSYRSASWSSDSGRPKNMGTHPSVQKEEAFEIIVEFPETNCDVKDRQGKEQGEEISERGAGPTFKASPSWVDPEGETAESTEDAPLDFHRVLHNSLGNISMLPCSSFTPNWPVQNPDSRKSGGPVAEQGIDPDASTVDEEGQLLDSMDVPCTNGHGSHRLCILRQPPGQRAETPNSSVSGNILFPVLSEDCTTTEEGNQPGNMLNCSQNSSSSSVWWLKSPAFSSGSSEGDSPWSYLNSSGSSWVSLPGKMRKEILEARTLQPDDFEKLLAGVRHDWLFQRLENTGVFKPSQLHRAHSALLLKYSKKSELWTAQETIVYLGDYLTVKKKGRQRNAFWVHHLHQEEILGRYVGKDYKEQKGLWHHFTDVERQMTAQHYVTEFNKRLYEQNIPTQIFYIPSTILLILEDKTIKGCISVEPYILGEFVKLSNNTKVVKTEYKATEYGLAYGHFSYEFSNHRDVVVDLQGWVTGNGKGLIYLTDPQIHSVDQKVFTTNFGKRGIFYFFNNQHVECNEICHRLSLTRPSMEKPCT
structure (smiles),measurement,setting,value
"C#C[C@@](C)(c1ccc(Cl)cc1)c1csc(NC(=O)NCCO)n1 [Compound A176, (S)-1-(4-(2-(4-chlorophenyl)but-3-yn-2-yl)thiazol-2-yl)-3-(2-hydroxyethyl)urea]",inhibition of IL1β induced by ALPK1 activation,[1]; THP-1-derived macrophages,potent inhibition
same,"PBMC mRNA expression for CCL-2, CCL-7, CXCL-1, CXCL-10, CXCL-11 and IL-1β",[2],significant decreases
COc1ccc(C(C)(C)c2csc(NC(=O)c3ccc(N4CCNCC4C)cc3)n2)cc1 (centres unmarked) [Compound B014],IC50,ALPK1,0.3 µM
"COc1ccc(C(C)(C)c2csc(NC(=O)c3ccc(N4CCNCC4)cn3)n2)cc1 [Compound B044, N-(4-(2-(4-methoxyphenyl)propan-2-yl)thiazol-2-yl)-5-(piperazin-1-yl)picolinamide]",IC50,ALPK1,0.213 µM
"C#C[C@@](C)(c1ccc(Cl)cc1)c1csc(NC(=O)c2c(F)cc(N3CCNCC3)cc2F)n1 [Compound C008, (S)-N-(4-(2-(4-chlorophenyl)but-3-yn-2-yl)thiazol-2-yl)-2,6-difluoro-4-(piperazin-1-yl)benzamide]",IC50,[1]; read-out: IL-8 mRNA IC50,0.006 µM
same,IC50,[1]; read-out: TNF-α mRNA IC50,0.009 µM
same,inhibition of IL1β induced by ALPK1 activation,[1]; THP-1-derived macrophages,potent inhibition
same,inhibition of IL8 and TNF-α mRNA induced by ALPK1 activation,[1]; THP-1-derived macrophages,potent inhibition
same,"IL8, TIFA, ICAM-1, VCAM-1 mRNA levels induced by ALPK1 activation",[3]; HASMC,dose dependently inhibited
same,IC50,[3]; read-out: IC50 ICAM-1 mRNA,0.047 µM
same,IC50,[3]; read-out: IC50 IL8 mRNA,0.11 µM
same,IC50,[3]; read-out: IC50 TIFA mRNA,0.115 µM
same,IC50,[3]; read-out: IC50 VCAM-1 mRNA,0.038 µM
same,"PBMC mRNA expression for CCL-7, CXCL-1, CXCL-10, CXCL-11, IL-1β, TNF-α and IL-6",[2],significant decreases
same,"mRNA expression of aorta IL-6, CXCL-1, CXCL-10, CCL-2",[4],significantly decreased
same,"mRNA expression of cardiac muscle TNF-α, IL-1b, IL-6, CXCL-1, CXCL-10, CXCL-11, CCL-2 and CCL-5",[4],significantly decreased
same,"mRNA expression of coronary artery TNF-α, CXCL-1, CCL-2 and CCL-7",[4],significantly decreased
same,fibrosis area percentage of the carotid artery (Masson staining),[5],decreased
same,liver CYP7A1 expression,[5],elevated CYP7A1 expression dose dependently
same,total plasma cholesterol level,[5],dose dependently decreased
same,wall thickness of the carotid artery (Masson staining),[5],decreased
same,OSS-induced inflammatory signaling in ECs (E-selectin and inflammatory cytokine mRNA),[6],reduced
same,PCL induced atherosclerosis (carotid artery wall thickness),[7],dose dependently inhibited
